# Assay results reported in patent US20160376240A1, “6 Phenyl or 6 Pyridin 3 YL Indazole Derivatives and Methods of Use” (ABBVIE INC., priority 2014, published 2016).
# Biological target: T1, TrkA (Homo sapiens, UniProt P04629)
# T1 construct: purchased Invitrogen PV3144
# Test: TrkA kinase inhibition, HTRF assay
# Assay type: biochemical
# Conditions: LCK peptide substrate 125 nM, TrkA 2-10 nM pre-incubated with ATP 200 μM
# Method in brief: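 TrkA (2-10 nM) preactivated 20 min with 200 μM ATP in HEPES pH 7.4 with Mg2+/Mn2+, then compound for 10 min, then 125 nM biotinylated LCK-peptide for 1 h at ambient temperature. HTRF 665/620 ratio read; IC50 fitted from initial-rate percent inhibition.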
# T1 sequence (P04629 33-796): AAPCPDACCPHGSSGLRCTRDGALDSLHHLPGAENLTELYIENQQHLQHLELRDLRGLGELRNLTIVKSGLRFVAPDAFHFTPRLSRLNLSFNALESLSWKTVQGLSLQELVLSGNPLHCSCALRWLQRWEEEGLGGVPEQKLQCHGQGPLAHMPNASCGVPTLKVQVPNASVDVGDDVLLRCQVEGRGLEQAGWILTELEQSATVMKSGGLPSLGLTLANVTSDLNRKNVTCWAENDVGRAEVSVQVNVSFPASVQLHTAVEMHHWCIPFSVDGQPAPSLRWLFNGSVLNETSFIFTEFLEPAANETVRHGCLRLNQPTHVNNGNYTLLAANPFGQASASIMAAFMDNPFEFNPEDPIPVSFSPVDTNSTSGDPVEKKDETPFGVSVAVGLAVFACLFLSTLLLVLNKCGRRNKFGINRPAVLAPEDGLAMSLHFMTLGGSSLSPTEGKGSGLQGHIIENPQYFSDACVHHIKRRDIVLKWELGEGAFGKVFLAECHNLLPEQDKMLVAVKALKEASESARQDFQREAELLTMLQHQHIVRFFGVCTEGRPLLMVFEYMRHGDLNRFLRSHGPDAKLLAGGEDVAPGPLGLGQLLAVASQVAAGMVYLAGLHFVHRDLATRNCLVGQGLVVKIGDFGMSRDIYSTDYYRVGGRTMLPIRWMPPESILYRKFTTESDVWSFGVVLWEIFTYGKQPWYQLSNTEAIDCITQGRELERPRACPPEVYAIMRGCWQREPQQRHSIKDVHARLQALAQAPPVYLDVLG
row,IC50 [nM],Molecule
1,147,"CC(=O)N1CCN(c2cc(-c3cc(OC4CCOCC4)c4c(N)n[nH]c4c3)ccc2C(N)=O)CC1 [Example 4, 2-(4-acetylpiperazin-1-yl)-4-[3-amino-4-(tetrahydro-2H-pyran-4-yloxy)-1H-indazol-6-yl]benzamide]"
2,223,"CNC(=O)c1ccc(-c2cc(O[C@H](C)C(F)(F)F)c3c(N)n[nH]c3c2)cc1N1CCC(O)(c2ccccc2)CC1 [Example 60, 4-(3-amino-4-{[(2R)-1,1,1-trifluoropropan-2-yl]oxy}-1H-indazol-6-yl)-2-(4-hydroxy-4-phenylpiperidin-1-yl)-N-methylbenzamide]"
3,2550,"CNC(=O)c1ccc(-c2cc(O[C@H](C)C(F)(F)F)c3c(N)n[nH]c3c2)cc1N1CCC(N2CCOCC2)CC1 [Example 59, 4-(3-amino-4-{[(2R)-1,1,1-trifluoropropan-2-yl]oxy}-1H-indazol-6-yl)-N-methyl-2-[4-(morpholin-4-yl)piperidin-1-yl]benzamide]"
4,8.62,"CNC(=O)c1ccc(-c2cc(OC3CCOCC3)c3c(C)n[nH]c3c2)cc1N1CCN(C(=O)CC2CC2)CC1 [Example 164, 2-[4-(cyclopropylacetyl)piperazin-1-yl]-N-methyl-4-[3-methyl-4-(tetrahydro-2H-pyran-4-yloxy)-1H-indazol-6-yl]benzamide]"
5,19.2,"CNC(=O)c1ccc(-c2cc(OC3CCOCC3)c3c(C)n[nH]c3c2)cc1N1CCN(C(=O)C2CC2)CC1 [Example 124, 2-[4-(cyclopropylcarbonyl)piperazin-1-yl]-N-methyl-4-[3-methyl-4-(tetrahydro-2H-pyran-4-yloxy)-1H-indazol-6-yl]benzamide]"
6,14,"CC(Oc1cc(-c2ccc(C(N)=O)c(N3CCN(C(=O)C(C)(C)C)CC3)c2)cc2[nH]nc(N)c12)C(F)(F)F (centres unmarked) [Example 104, 4-{3-amino-4-[(1,1,1-trifluoropropan-2-yl)oxy]-1H-indazol-6-yl}-2-[4-(2,2-dimethylpropanoyl)piperazin-1-yl]benzamide]"
7,7.97,"NC(=O)c1ccc(-c2cc(O[C@H]3CCOC3)c3c(N)n[nH]c3c2)cc1N1CCN(c2cccnc2)CC1 [Example 67, 4-{3-amino-4-[(3S)-tetrahydrofuran-3-yloxy]-1H-indazol-6-yl}-2-[4-(pyridin-3-yl)piperazin-1-yl]benzamide]"
8,8440,"NC(=O)c1ccc(-c2ccc3c(N)n[nH]c3c2)cc1N1CCN(C2CC2)CC1 [Example 88, 4-(3-amino-1H-indazol-6-yl)-2-(4-cyclopropylpiperazin-1-yl)benzamide]"
9,539,"CC(Oc1cc(-c2ccc(C(N)=O)c(N3CCN(c4ccncc4)CC3)c2)cc2[nH]nc(N)c12)C(F)(F)F (centres unmarked) [Example 98, 4-{3-amino-4-[(1,1,1-trifluoropropan-2-yl)oxy]-1H-indazol-6-yl}-2-[4-(pyridin-4-yl)piperazin-1-yl]benzamide]"
10,89.8,"CC(Oc1cc(-c2ccc(C(N)=O)c(N3CCN(CCN4CCOCC4)CC3)c2)cc2[nH]nc(N)c12)C(F)(F)F (centres unmarked) [Example 95, 4-{3-amino-4-[(1,1,1-trifluoropropan-2-yl)oxy]-1H-indazol-6-yl}-2-{4-[2-(morpholin-4-yl)ethyl]piperazin-1-yl}benzamide]"
11,2.93,"NC(=O)c1ccc(-c2cc(O[C@H]3CCOC3)c3c(N)n[nH]c3c2)cc1N1CCN(c2ccccc2)CC1 [Example 66, 4-{3-amino-4-[(3S)-tetrahydrofuran-3-yloxy]-1H-indazol-6-yl}-2-(4-phenylpiperazin-1-yl)benzamide]"
12,171,"CNC(=O)c1ccc(-c2cc(OC3CCOCC3)c3c(C)n[nH]c3c2)cc1N1CCN(C(=O)OC(C)C(F)(F)F)CC1 (centres unmarked) [Example 163, 1,1,1-trifluoropropan-2-yl 4-{2-(methylcarbamoyl)-5-[3-methyl-4-(tetrahydro-2H-pyran-4-yloxy)-1H-indazol-6-yl]phenyl}piperazine-1-carboxylate]"
13,50.8,"CNC(=O)c1ccc(-c2cc(OC3CCCC3)c3c(C)n[nH]c3c2)cc1N1CCN(C(=O)OCc2ccccc2)CC1 [Example 129, benzyl 4-{5-[4-(cyclopentyloxy)-3-methyl-1H-indazol-6-yl]-2-(methylcarbamoyl)phenyl}piperazine-1-carboxylate]"
14,17.4,"NC(=O)c1ccc(-c2cc(OC3CCCC3)c3c(N)n[nH]c3c2)cc1N1CCN(C(=O)C2CC2)CC1 [Example 81, 4-[3-amino-4-(cyclopentyloxy)-1H-indazol-6-yl]-2-[4-(cyclopropylcarbonyl)piperazin-1-yl]benzamide]"
15,8.45,"CC(=O)N1CCC(Oc2cc(-c3ccc(C(N)=O)c(N4CCN(c5ccccc5)CC4)c3)cc3[nH]nc(N)c23)CC1 [Example 64, 4-{4-[(1-acetylpiperidin-4-yl)oxy]-3-amino-1H-indazol-6-yl}-2-(4-phenylpiperazin-1-yl)benzamide]"
16,18.1,"CNC(=O)c1ccc(-c2cc(OC3CCOCC3)c3c(C)n[nH]c3c2)cc1N1CCN(C(=O)OCC(F)(F)F)CC1 [Example 136, 2,2,2-trifluoroethyl 4-{2-(methylcarbamoyl)-5-[3-methyl-4-(tetrahydro-2H-pyran-4-yloxy)-1H-indazol-6-yl]phenyl}piperazine-1-carboxylate]"

# Continued, molecule first:
row,Molecule,IC50 [nM]
1,"NC(=O)c1ccc(-c2ccc3c(N)n[nH]c3c2)cc1N1CCN(Cc2ccccc2)CC1 [Example 87, 4-(3-amino-1H-indazol-6-yl)-2-(4-benzylpiperazin-1-yl)benzamide]",43.3
2,"CNC(=O)c1ccc(-c2cc(OC3CCOCC3)c3c(C)n[nH]c3c2)cc1N1CCN(C(=O)OC)CC1 [Example 153, methyl 4-{2-(methylcarbamoyl)-5-[3-methyl-4-(tetrahydro-2H-pyran-4-yloxy)-1H-indazol-6-yl]phenyl}piperazine-1-carboxylate]",9.12
3,"CNC(=O)c1ccc(-c2cc(O[C@H](C)C(F)(F)F)c3c(N)n[nH]c3c2)cc1N1CCOC(CC(C)C)C1 (stereo partly drawn) [Example 58, 4-(3-amino-4-{[(2R)-1,1,1-trifluoropropan-2-yl]oxy}-1H-indazol-6-yl)-2-(2-isobutylmorpholin-4-yl)-N-methylbenzamide]",673
4,"CNC(=O)c1ccc(-c2cc(OC3CCOCC3)c3c(N)n[nH]c3c2)cc1N1CCN(CC(F)(F)C(F)F)CC1 [Example 167, 4-[3-amino-4-(tetrahydro-2H-pyran-4-yloxy)-1H-indazol-6-yl]-N-methyl-2-[4-(2,2,3,3-tetrafluoropropyl)piperazin-1-yl]benzamide]",11.5
5,"CC(=O)Nc1ccc(-c2cc(OC3CCOCC3)c3c(C)n[nH]c3c2)cc1N1CCN(Cc2ccccc2)CC1 [Example 145, N-{2-(4-benzylpiperazin-1-yl)-4-[3-methyl-4-(tetrahydro-2H-pyran-4-yloxy)-1H-indazol-6-yl]phenyl}acetamide]",12.6
6,"CC(Oc1cc(-c2ccc(C(=O)NC3CC3)c(N3CCN(C4CC4)CC3)c2)cc2[nH]nc(N)c12)C(F)(F)F (centres unmarked) [Example 27, 4-{3-amino-4-[(1,1,1-trifluoropropan-2-yl)oxy]-1H-indazol-6-yl}-N-cyclopropyl-2-(4-cyclopropylpiperazin-1-yl)benzamide]",251
7,"NC(=O)c1ccc(-c2cc(OC3CCCC3)c3c(N)n[nH]c3c2)cc1N1CCN(C(=O)c2ccccc2)CC1 [Example 80, 4-[3-amino-4-(cyclopentyloxy)-1H-indazol-6-yl]-2-(4-benzoylpiperazin-1-yl)benzamide]",17.5
8,"CNC(=O)c1ccc(-c2cc(O[C@@H](C)C(F)(F)F)c3c(N)n[nH]c3c2)cc1N1CCN(c2ncccn2)CC1 [Example 43, 4-(3-amino-4-{[(2S)-1,1,1-trifluoropropan-2-yl]oxy}-1H-indazol-6-yl)-N-methyl-2-[4-(pyrimidin-2-yl)piperazin-1-yl]benzamide]",63.1
9,"CC(Oc1cc(-c2ccc(C(N)=O)c(N3CCN(C4CC4)CC3)c2)cc2[nH]nc(N)c12)C(F)(F)F (centres unmarked) [Example 97, 4-{3-amino-4-[(1,1,1-trifluoropropan-2-yl)oxy]-1H-indazol-6-yl}-2-(4-cyclopropylpiperazin-1-yl)benzamide]",27.3
10,"CC(=O)c1ccc(-c2cc(OC3CCOCC3)c3c(N)n[nH]c3c2)cc1N1CCN(C(=O)C2CC2)CC1 [Example 20, 1-{4-[3-amino-4-(tetrahydro-2H-pyran-4-yloxy)-1H-indazol-6-yl]-2-[4-(cyclopropylcarbonyl)piperazin-1-yl]phenyl}ethanone]",101
11,"NC(=O)c1ccc(-c2ccc3c(N)n[nH]c3c2)cc1N1CCN(c2ccccc2)CC1 [Example 84, 4-(3-amino-1H-indazol-6-yl)-2-(4-phenylpiperazin-1-yl)benzamide]",24.3
12,"4-{3-amino-4-[(1,1,1-trifluoropropan-2-yl)oxy]-1H-indazol-6-yl}-2-(4-cyclopentylpiperazin-1-yl)benzamide [Example 102]",19.2
13,"CC(=O)c1ccc(-c2cc(OC3CCOCC3)c3c(N)n[nH]c3c2)cc1N1CCN(c2nccs2)CC1 [Example 21, 1-{4-[3-amino-4-(tetrahydro-2H-pyran-4-yloxy)-1H-indazol-6-yl]-2-[4-(1,3-thiazol-2-yl)piperazin-1-yl]phenyl}ethanone]",33.3
14,"CNC(=O)c1ccc(-c2cc(O[C@H](C)C(F)(F)F)c3c(N)n[nH]c3c2)cc1N1CCN(c2ccccc2)CC1 [Example 48, 4-(3-amino-4-{[(2R)-1,1,1-trifluoropropan-2-yl]oxy}-1H-indazol-6-yl)-N-methyl-2-(4-phenylpiperazin-1-yl)benzamide]",38.5
15,"CNC(=O)c1ccc(-c2cc(OC3CCCC3)c3c(C)n[nH]c3c2)cc1N1CCN(C2CCCCC2)CC1 [Example 121, 2-(4-cyclohexylpiperazin-1-yl)-4-[4-(cyclopentyloxy)-3-methyl-1H-indazol-6-yl]-N-methylbenzamide]",17.3
16,"CNC(=O)c1ccc(-c2cc(OC3CCOCC3)c3c(N)n[nH]c3c2)cc1N1CCN(CC(F)(F)C(F)(F)F)CC1 [Example 170, 4-[3-amino-4-(tetrahydro-2H-pyran-4-yloxy)-1H-indazol-6-yl]-N-methyl-2-[4-(2,2,3,3,3-pentafluoropropyl)piperazin-1-yl]benzamide]",17.8
